In brackets after ≈: the same amount, converted by molar mass. Like-named read-outs stand apart in the source and are kept apart here.
Tests used:
Assay type in all cases: cell-based
Candida albicans [1] = test: In vitro susceptibility, fluconazole and CHD-FA, preliminary experiment (5 clinical isolates); details: read-out: Minimum Inhibitory Concentrations of Fluconazole
Protocol: (§1) Each culture was grown on Sabouraud agar at 37° C. for 48 h to ensure purity.
Clinical Microbiology and Infection 9:1-VIII.)
a) All yeasts were cultured in ambient air at 35-37° C. on recovery medium (Sabouraud dextrose agar) for 18-24 h before testing.
b) The inoculum was prepared by picking five distinct colonies from 18 to 24 h cultures and suspending them in 5 mL of sterile distilled water.
c) The inoculum was completely suspended by vigorous shaking on a vortex mixer for 15 s. The cell density was adjusted to the density of a 0.5 McFarland standard by adding sterile distilled water and measuring absorbance in a spectrophotometer at a wavelength of 530 nm. This gave a yeast suspension of 1-5×10^6 cfu/mL. A working suspension was prepared by a further dilution of 1 in 10 further in 4×RPMI to give […] (The RPMI medium used in the plates was prepared at 4×the final strength to allow for a 75% dilution once the inoculum and diluted CHD-FA was added).
(§2) Sterile plastic, disposable, microtitration plates with 96 flat-bottom wells were used.
(§3) a) Column 1 of the microtitration tray was filled with 100 μL of sterile water containing four times the final drug concentration (512 mg/L fluconazole).
(§4) b) Columns 2-12 were filled with 50 μL of distilled water
(§5) c) 50 μL amounts were taken from wells in column 1 and diluted two-fold by transferring them to column 2 with a multichannel pipette (±2% coefficient of variation). 50 μL samples were then removed from column 2 and transferred to column 3, and so on through to column 10. The last 50 μL of diluted drug is then discarded. Thus, each well in columns 1-10 will contain 50 μL of water containing four times the final antifungal drug concentrations.
Stock solutions of CHD-FA were produced containing 4%, 2%, 1%, 0.5% and 0.25% of the native compound. 100 μL of the diluted CHD-FA was added to microtitration trays in so that row A contains a final dilution of 2% row B, 1%, row C 0.5%, row D 0.25% row E 0.125% and row F diluent only.
50 μL of the diluted Candida albicans suspension in 4×RPMI was added to all cells. This produces a well containing 200 μL final volume (made up of 50 μL diluted fluconazole, 100 μL diluted CHD-FA or diluent, 50 μL of 4×RPMI containing Candida albicans)
(§6) All plates were incubated at 37° C. in air in a darkened incubator.
(§7) Plates were read visually with the endpoint taken as the lowest concentration of drug that inhibited growth by 50% of that of the drug free control.
The pH of CHD-FA was adjusted to pH7.0 using 10M NaOH solution (the ideal pH for fluconazole activity). […] Susceptibility assays were repeated as above.

Candida albicans [2] = test: In vitro susceptibility, fluconazole and CHD-FA, main experiment
Protocol: as §1, §2, §3, §4, §5
(§8) Stock solutions of CHD-FA were produced containing 4% and 2% (also 1% and 0.5% for Candida parapsilosis and Candida krusei). 100 μL of the diluted CHD-FA was added to microtitration trays in so that rows contain final dilutions of: • For Candida albicans and tropicalis: 1st row of pair 0.5% CHD-FA, 2nd row of pair solvent only • For Candida glabrata: 1st row of triplet 1% CHD-FA, 2nd row of triplet 0.5% CHD-FA, 3rd row of triplet solvent only • For Candida parapsilosis and Candida krusei rows included 2%, 1%, 0.5%, 0.25 and 0.125% CHD-FA and a row of solvent only.
(§9) All the above concentrations were mixed with fixed concentrations of fluconazole at 128, 32, 8, 2, 0.5 mg/L and solvent for synergy/antagonism assessment.
(§10) 50 μL of the diluted Candida spp suspension in 4×RPMI was added to all wells. This produces a well containing 200 μL final volume (made up of 50 μL diluted fluconazole, 100 μL diluted CHD-FA or diluent, 50 μL of 4×RPMI containing Candida)
as §6, §7

Candida glabrata = test: as above
Protocol: as §1, §2, §3, §4, §5, §8, §9, §10, §6, §7

Candida tropicalis = test: as above
Protocol: as §1, §2, §3, §4, §5, §8, §9, §10, §6, §7

Candida krusei = test: as above
Protocol: as §2, §3, §4, §5, §8, §9, §10, §6, §7

Candida parapsilosis = test: as above; details: Lodderomyces parapsilosis, read-out: Fluconazole MIC (mg/L) alone
Protocol: as §2, §3, §4, §5, §8, §9, §10, §6, §7

`OC(Cn1cncn1)(Cn1cncn1)c1ccc(F)cc1F` [Fluconazole, fluconazole] was tested, and the MIC (Candida albicans [1]; Candida Strain 1, Solvent (no CHD-FA)) was 128 µg/mL (≈ 418 µM), the MIC (Candida albicans [1]; Candida Strain 2, Solvent (no CHD-FA)) was 16 µg/mL (≈ 52.2 µM) and the MIC (Candida albicans [1]; Candida Strain 3, Solvent (no CHD-FA)) was 16 µg/mL (≈ 52.2 µM). The MIC (Candida albicans [1]; Candida Strain 4, Solvent (no CHD-FA)) was 32 µg/mL (≈ 104 µM), the MIC (Candida albicans [1]; Candida Strain 5, Solvent (no CHD-FA)) was 16 µg/mL (≈ 52.2 µM) and the MIC (Candida albicans [2]; C. albicans isolate 1, read-out: Fluconazole MIC (mg/L) alone) was 128 mg/L. It also gave an MIC (Candida albicans [2]; C. albicans isolate 2, read-out: Fluconazole MIC (mg/L) alone) of 8 mg/L, an MIC (Candida albicans [2]; C. albicans isolate 3, read-out: Fluconazole MIC (mg/L) alone) of 16 mg/L and an MIC (Candida albicans [2]; C. albicans isolate 4, read-out: Fluconazole MIC (mg/L) alone) of 4 mg/L. For the same molecule, the MIC (Candida albicans [2]; C. albicans isolate 5, read-out: Fluconazole MIC (mg/L) alone) was 128 mg/L, the MIC (Candida albicans [2]; C. albicans isolate 6, read-out: Fluconazole MIC (mg/L) alone) was over 128 mg/L and the MIC (Candida albicans [2]; C. albicans isolate 7, read-out: Fluconazole MIC (mg/L) alone) was 128 mg/L. It also gave an MIC (Candida albicans [2]; C. albicans isolate 8, read-out: Fluconazole MIC (mg/L) alone) of 128 mg/L, an MIC (Candida albicans [2]; C. albicans isolate 9, read-out: Fluconazole MIC (mg/L) alone) of 64 mg/L and an MIC (Candida albicans [2]; C. albicans isolate 10, read-out: Fluconazole MIC (mg/L) alone) of 128 mg/L. It also gave an MIC (Candida albicans [2]; C. albicans isolate 11, read-out: Fluconazole MIC (mg/L) alone) of 0.5 mg/L, an MIC (Candida albicans [2]; C. albicans isolate 12, read-out: Fluconazole MIC (mg/L) alone) of 64 mg/L and an MIC (Candida albicans [2]; C. albicans isolate 13, read-out: Fluconazole MIC (mg/L) alone) of 0.5 mg/L. The MIC (Candida albicans [2]; C. albicans isolate 14, read-out: Fluconazole MIC (mg/L) alone) was 32 mg/L, the MIC (Candida albicans [2]; C. albicans isolate 15, read-out: Fluconazole MIC (mg/L) alone) was 2 mg/L and the MIC (Candida albicans [2]; C. albicans isolate 16, read-out: Fluconazole MIC (mg/L) alone) was 64 mg/L. For the same molecule, the MIC (Candida albicans [2]; C. albicans isolate 17, read-out: Fluconazole MIC (mg/L) alone) was over 128 mg/L, the MIC (Candida albicans [2]; C. albicans isolate 18, read-out: Fluconazole MIC (mg/L) alone) was over 128 mg/L and the MIC (Candida albicans [2]; C. albicans isolate 19, read-out: Fluconazole MIC (mg/L) alone) was 0.5 mg/L. The MIC (Candida albicans [2]; C. albicans isolate 20, read-out: Fluconazole MIC (mg/L) alone) was over 128 mg/L, the MIC (Candida albicans [2]; C. albicans isolate 21, read-out: Fluconazole MIC (mg/L) alone) was 4 mg/L and the MIC (Candida albicans [2]; C. albicans isolate 22, read-out: Fluconazole MIC (mg/L) alone) was 2 mg/L. The MIC (Candida albicans [2]; C. albicans isolate 23, read-out: Fluconazole MIC (mg/L) alone) was 1 mg/L, the MIC (Candida albicans [2]; C. albicans isolate 24, read-out: Fluconazole MIC (mg/L) alone) was 1 mg/L and the MIC (Candida albicans [2]; C. albicans isolate 25, read-out: Fluconazole MIC (mg/L) alone) was over 128 mg/L. The “Fluconazole MIC (mg/L) alone” value (Candida glabrata; C. glabrata isolate 1) was over 128 mg/L, the “Fluconazole MIC (mg/L) alone” value (Candida glabrata; C. glabrata isolate 2) was over 128 mg/L and the “Fluconazole MIC (mg/L) alone” value (Candida glabrata; C. glabrata isolate 3) was over 128 mg/L. For the same molecule, the “Fluconazole MIC (mg/L) alone” value (Candida glabrata; C. glabrata isolate 5) was over 128 mg/L, the “Fluconazole MIC (mg/L) alone” value (Candida glabrata; C. glabrata isolate 6) was over 128 mg/L and the “Fluconazole MIC (mg/L) alone” value (Candida glabrata; C. glabrata isolate 7) was over 128 mg/L. The “Fluconazole MIC (mg/L) alone” value (Candida glabrata; C. glabrata isolate 8) was over 128 mg/L, the “Fluconazole MIC (mg/L) alone” value (Candida glabrata; C. glabrata isolate 9) was over 128 mg/L and the “Fluconazole MIC (mg/L) alone” value (Candida glabrata; C. glabrata isolate 10) was over 128 mg/L. For the same molecule, the “Fluconazole MIC (mg/L) alone” value (Candida glabrata; C. glabrata isolate 11) was over 128 mg/L, the MIC (Candida glabrata; Nakaseomyces glabratus, C. glabrata isolate 4, read-out: Fluconazole MIC (mg/L) alone) was over 128 mg/L and the MIC (Candida tropicalis; C. tropicalis isolate 1, read-out: Fluconazole MIC (mg/L) alone) was 16 mg/L. The MIC (Candida tropicalis; C. tropicalis isolate 2, read-out: Fluconazole MIC (mg/L) alone) was over 64 mg/L, the MIC (Candida tropicalis; C. tropicalis isolate 3, read-out: Fluconazole MIC (mg/L) alone) was 16 mg/L and the MIC (Candida tropicalis; C. tropicalis isolate 4, read-out: Fluconazole MIC (mg/L) alone) was 16 mg/L. For the same molecule, the “Fluconazole MIC (mg/L) alone” value (Candida krusei; C. krusei isolate 1) was 32 mg/L, the “Fluconazole MIC (mg/L) alone” value (Candida krusei; C. krusei isolate 2) was 32 mg/L and the “Fluconazole MIC (mg/L) alone” value (Candida krusei; C. krusei isolate 4) was 32 mg/L. The “Fluconazole MIC (mg/L) alone” value (Candida krusei; C. krusei isolate 5) was 32 mg/L, the MIC (Candida krusei; Pichia kudriavzevii, C. krusei isolate 3, read-out: Fluconazole MIC (mg/L) alone) was 32 mg/L and the MIC (Candida parapsilosis; C. parapsilosis isolate 1) was 8 mg/L. The MIC (Candida parapsilosis; C. parapsilosis isolate 2) was 2 mg/L, the MIC (Candida parapsilosis; C. parapsilosis isolate 3) was 8 mg/L and the MIC (Candida parapsilosis; C. parapsilosis isolate 4) was 8 mg/L. For the same molecule, the MIC (Candida parapsilosis; C. parapsilosis isolate 5) was 8 mg/L.
